Measurements taken from publication PMC9412300, “In Vitro Evaluation and Mitigation of Niclosamide’s Liabilities as a COVID-19 Treatment” (Vaccines, 2022).
Read-outs that look alike come from different tables or passages of the source.

Columns and labels:
in vitro [1] = details: African green monkey
[2] = Cell viability (cell count per well) in H1437, 72 h compound exposure; assay type: cell-based, human; details: human
H1437 cells = assay: Cell viability (cell count per well) in H1437, 72 h compound exposure; assay type: cell-based, human; details: H1437 infected with WA1, 72 h compound exposure
[3] = Cell viability in VeroE6, shortened 24 h infection assay; details: African green monkey
[4] = tested on: SARS-CoV-2 B.1.1.7 (alpha); assay: microbe, parasite or virus in culture; assay type: cell-based
[5] = tested on: SARS-CoV-2 WA1 (wildtype); assay: microbe, parasite or virus in culture; assay type: cell-based
in vitro [6] = details: African green monkey; remark: listed apart in the source
[7] = parameters: method as in PMID 33842908; details: phase 1, 50 mg over 2.5 days inhalable/intranasal; cited from earlier work
[8] = rats, oral administration at 5 mg/kg; cited from earlier work
[9] = tested on: SARS-CoV-2 B.1.617.2 (delta); assay: microbe, parasite or virus in culture; assay type: cell-based; details: Severe acute respiratory syndrome coronavirus 2, Vero C1008; read-out: IC50 against B.1.617.2, 24 h infection
[10] = tested on: SARS-CoV-2 B.1.351 (beta); assay: microbe, parasite or virus in culture; assay type: cell-based; details: Severe acute respiratory syndrome coronavirus 2, Vero C1008; read-out: IC50 against B.1.351, 24 h infection
SARS-CoV-2 = tested on: SARS-CoV-2; parameters: method as in PMID 35138402; details: phase 2, 2 g orally for 7 days; cited from earlier work
SARS-CoV = details: cited from earlier work
[11] = parameters: method as in PMID 26848771, PMID 31040114; details: cited from earlier work
SARS-CoV-2 P.1 (gamma) = assay: microbe, parasite or virus in culture; assay type: cell-based; details: Severe acute respiratory syndrome coronavirus 2, Vero C1008; read-out: IC50 against P.1, 24 h infection
[12] = parameters: method as in PMID 26848771, PMID 31040114; details: cited from earlier work; remark: listed apart in the source
[13] = H1437 cells infected with SARS-CoV-2 WA1, H1437 infected with WA1, 72 h compound exposure, read-out: H1437 (WA1) CC50
[14] = Severe acute respiratory syndrome coronavirus 2, Vero C1008, 24 h; read-out: IC50 B.1.1.7 (protonophores)
[15] = Severe acute respiratory syndrome coronavirus 2, Vero C1008, 24 h; read-out: IC50 WA1 (protonophores)

SMILES	CC50 (VeroE6 cells) [µM]	CC50 (H1437 cells) [µM]	also measured
CC(C)(C)c1ccc(O)c(C(=O)Nc2ccc([N+](=O)[O-])cc2Cl)c1 [Compound 11]	–	–	CC50 (in vitro [1]): 3.41 µM; CC50 at 72 h [2, 13]: 1.92 µM
CC(C)(C)c1cc(C(=O)Nc2ccc(NS(C)(=O)=O)cc2Cl)c(O)c(C(C)(C)C)c1 [Compound 18]	> 20	> 20	–
Cc1cc(NC(=O)c2cc(C(C)(C)C)cc(C(C)(C)C)c2O)ccc1C(=O)O [Compound 20]	> 20	> 20	–
O=C(Nc1ccc(Br)cc1Cl)c1cc(Cl)ccc1O [Compound 34]	5.47	3.62	–
CC(C)(C)c1ccc(O)c(C(=O)Nc2ccc(C(=O)O)cc2F)c1 [Compound 15]	> 20	> 20	–
CC(C)(C)c1ccc(O)c(C(=O)Nc2ccc(C(=O)O)cc2Cl)c1 [Compound 14]	14.2	> 20	–
Cc1ccc(NC(=O)c2cc(Cl)ccc2O)c(Cl)c1 [Compound 6]	4.59	6.05	–
COC(=O)c1ccc(NC(=O)c2cccc(C(C)(C)C)c2O)c(Cl)c1 [Compound 25]	> 20	> 20	–
O=C(O)c1ccc(NC(=O)c2cc(C3CCCCC3)ccc2O)c(Cl)c1 [Compound 22]	> 20	> 20	–
COc1ccc(NC(=O)c2cc(Cl)ccc2O)c(Cl)c1 [Compound 10]	> 20	18.9	–
Cc1cc(NC(=O)c2cc(C(C)(C)C)cc(C(C)(C)C)c2O)ccc1C(=O)O [Compound 27]	> 20	–	–
COc1ccc(O)c(C(=O)Nc2ccc([N+](=O)[O-])cc2Cl)c1 [Compound 4]	10.1	8.94	–
CC(C)(C)c1cc(C(=O)Nc2ccc(N)cc2Cl)c(O)c(C(C)(C)C)c1 [Compound 19]	17.6	> 20	–
COC(=O)c1ccc(NC(=O)c2cc(Cl)ccc2O)c(Cl)c1 [Compound 7]	–	–	CC50 (in vitro [1]): 8.14 µM; CC50 at 72 h [2, 13]: > 20 µM
COc1ccc(O)c(C(=O)Nc2ccc(C(=O)O)cc2C)c1 [Compound 28]	> 20	> 20	–
COC(=O)c1ccc(NC(=O)c2cc(C(F)(F)F)ccc2O)c(C)c1 [Compound 23]	> 20	> 20	–
CC(C)(C)c1cccc(C(=O)Nc2ccc([N+](=O)[O-])cc2Cl)c1O [Compound 31]	7.21	1.11	–
COc1ccc(O)c(C(=O)Nc2ccc([N+](=O)[O-])cc2Cl)c1 [Compound 12]	10.3	7.53	–

SMILES	CC50 (VeroE6 cells) [µM]	CC50 (H1437 cells) [µM]	also measured
O=C(O)c1ccc(NC(=O)c2cc(Cl)ccc2O)c(Cl)c1 [Compound 8]	> 20	> 20	–
N#CC(C#N)=NNc1ccc(OC(F)(F)F)cc1 [FCCP]	–	–	CC50 at 25 h [3]: 43 µM; IC50 ([4]; Severe acute respiratory syndrome coronavirus 2, Vero C1008, 24 h, read-out: IC50 B.1.1.7 (protonophores)): 13 µM; IC50 ([5]; Severe acute respiratory syndrome coronavirus 2, Vero C1008, 24 h, read-out: IC50 WA1 (protonophores)): 35 µM
CC(C)(C)c1cccc(C(=O)Nc2ccc(N)cc2Cl)c1O [Compound 32]	> 20	> 20	–
O=C(Nc1ccc([N+](=O)[O-])cc1Cl)c1ccccc1O [Compound 2]	–	–	CC50 (in vitro [1]): 5.59 µM; CC50 at 72 h [2, 13]: 8.4 µM
COC(=O)c1ccc(NC(=O)c2cc(C3CCCCC3)ccc2O)c(Cl)c1 [Compound 21]	> 20	> 20	–
O=C(Nc1ccc([N+](=O)[O-])cc1Cl)c1cccc(Cl)c1 [Compound 9]	–	–	CC50 (in vitro [1]): > 20 µM; CC50 at 72 h [2, 13]: > 20 µM
Cc1ccc(O)c(C(=O)Nc2ccc([N+](=O)[O-])cc2Cl)c1 [Compound 3]	6.28	3.06	–
O=C(Nc1ccccc1Cl)c1cc(Cl)ccc1O [Compound 5]	8.44	18.6	–
COC(=O)c1ccc(NC(=O)c2cc(C(C)(C)C)ccc2O)c(Cl)c1 [Compound 13]	14.6	> 20	–
CC(C)(C)c1cccc(C(=O)Nc2ccc(NS(C)(=O)=O)cc2Cl)c1O [Compound 33]	> 20	> 20	–
O=[N+]([O-])c1ccc(O)c([N+](=O)[O-])c1 [2,4 DNP]	–	–	IC50 [4, 14]: > 100 µM; CC50 (in vitro [6]): > 100 µM; IC50 [5, 15]: > 100 µM
O=C(Nc1ccc([N+](=O)[O-])cc1Cl)c1cc(Cl)ccc1O [Niclosamide]	–	–	participants with moderate lung irritation [7]: 59%; maximal serum concentration (Cmax) [8]: 354 ± 152 ng/mL; IC50 [9]: 0.774 ± 0.058 µM; IC50 [10]: 0.44 ± 0.021 µM; effect on the duration of the contagious period of SARS-CoV-2 (SARS-CoV-2): no statistically significant effect; inhibition of SARS-CoV viral replication in vitro (SARS-CoV): low micromolar potency; CC50 at 25 h ([3]; VeroE6 cells infected with SARS-CoV-2, CC50 (protonophores), VeroE6, 24 h infection conditions, starting concentration 100 μM): 66 µM; CC50 (in vitro [1]): 1.05 µM; IC50 [4, 14]: 0.25 µM; IC50 ([4]; Severe acute respiratory syndrome coronavirus 2, Vero C1008; read-out: IC50 against B.1.1.7, 24 h infection): 0.298 µM; water solubility [11]: poor; IC50 (SARS-CoV-2 P.1 (gamma)): 0.399 ± 0.034 µM; oral bioavailability [12]: < 10%; CC50 at 72 h ([2]; H1437 cells infected with SARS-CoV-2 B.1.1.7, H1437 infected with B.1.1.7, 72 h compound exposure, read-out: H1437 (B.1.1.7) CC50): 0.438 µM; CC50 at 72 h [2, 13]: 17.1 µM; IC50 [5, 15]: 3.5 µM; IC50 ([5]; Severe acute respiratory syndrome coronavirus 2, Vero C1008; read-out: IC50 against WA1, 24 h infection): 1.66 µM
CC(C)(C)c1cccc(C(=O)Nc2ccc(C(=O)O)cc2Cl)c1O [Compound 30]	> 20	> 20	–
N#Cc1ccc(NC(=O)c2cc(Cl)ccc2O)c(Cl)c1 [Compound 24]	–	–	CC50 (in vitro [1]): 4.72 µM; CC50 at 72 h [2, 13]: 0.88 µM
O=C(Nc1cc(Cl)cc(Cl)c1O)c1c(O)c(Cl)cc(Cl)c1Cl [Oxyclozanide, oxyclozanide]	–	–	CC50 at 25 h [3]: > 100 µM; IC50 [4, 14]: 20 µM; IC50 [5, 15]: 64 µM
CC(C)(C)c1cc(C(=O)Nc2ccc(C(=O)O)cc2Cl)c(O)c(C(C)(C)C)c1 [Compound 26]	> 20	> 20	–
Cc1cc(C(=O)O)ccc1NC(=O)c1cc(C(C)(C)C)ccc1O [Compound 16]	> 20	> 20	–
O=c1oc2ccccc2c(O)c1Cc1c(O)c2ccccc2oc1=O [Dicumarol, dicumarol]	–	–	CC50 at 25 h [3]: > 100 µM; IC50 [4, 14]: > 100 µM; IC50 [5, 15]: > 100 µM
